pIC50: −log10 of the molar value.
Biological target: T1, wild type oCOX-1 (Ovis aries, UniProt P05979)
T1 construct: Ram seminal vesicles were purchased from Oxford Biomedical Research; tissue Oxford Biomedical Research; host or cells: ram seminal vesicles
T1 sequence (P05979 25-600): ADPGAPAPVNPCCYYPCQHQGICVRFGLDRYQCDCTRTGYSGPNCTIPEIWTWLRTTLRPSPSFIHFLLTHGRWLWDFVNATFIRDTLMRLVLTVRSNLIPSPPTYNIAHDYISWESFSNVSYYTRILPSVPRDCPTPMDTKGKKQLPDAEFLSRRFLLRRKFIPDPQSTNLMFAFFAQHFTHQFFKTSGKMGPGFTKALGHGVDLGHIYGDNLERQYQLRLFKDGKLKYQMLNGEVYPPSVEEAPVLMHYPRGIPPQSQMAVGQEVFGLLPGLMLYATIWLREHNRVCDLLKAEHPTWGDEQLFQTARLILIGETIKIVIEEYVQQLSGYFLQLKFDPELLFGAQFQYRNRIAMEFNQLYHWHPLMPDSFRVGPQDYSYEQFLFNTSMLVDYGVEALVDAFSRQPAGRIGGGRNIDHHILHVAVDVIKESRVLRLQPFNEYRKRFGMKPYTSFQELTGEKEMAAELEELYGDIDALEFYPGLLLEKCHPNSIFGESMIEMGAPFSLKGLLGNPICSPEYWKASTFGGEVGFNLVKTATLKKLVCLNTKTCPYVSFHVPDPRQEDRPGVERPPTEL
Experiment: Time-dependent IC50 COX inhibition assay
Assay type: biochemical, ovine
Method: These mutated genes were used to assemble baculoviral constructs for large-scale expression in Sf9 cells. Purification of the expressed COX-2 protein was performed through traditional cellular fractionation and classical column chromatography. Activity or inhibition assays were performed in 100 mM Tris-HCl buffer containing 500 μM phenol, with hematin-reconstituted protein. Quantification of cyclooxygenase activity was performed by monitoring substrate (arachidonate or oxygen) consumption in a thermostatted cuvette at 37° C. using a polarographic electrode with a 5300 oxygen monitor (Yellow Springs Instrument Co. Inc., Yellow Springs, Ohio, United States of America). All inhibitors and substrates were solubilized in dimethyl sulfoxide (DMSO). Activity or inhibition assays were performed in 100 mM Tris-HCl buffer containing 500 μM phenol, with hematin-reconstituted protein. Maximal reaction velocity data were obtained from the linear portion of the oxygen uptake curves, and the data were analyzed by nonlinear regression with Prism 4.0 (GraphPad Software, San Diego, Calif., United States of America).
Time-dependent inhibition reactions were performed by pre-incubating the inhibitor and enzyme for 17 minutes at 25° C., followed by 3 minutes at 37° C. prior to the addition of 50 μM [1-^14C]-AA for 30 seconds at 37° C. Assays were terminated and analyzed for substrate consumption by thin layer chromatography as previously described (Kalgutkar et al., 2000a).
Maximal reaction velocity data were obtained from the linear portion of the oxygen uptake curves, and the data were analyzed by nonlinear regression. Instantaneous inhibition assays were performed with substrate and inhibitor added prior the initiation of the reaction by addition of protein. […]
Assays were terminated and analyzed for substrate consumption by thin layer chromatography. […] All reactions were performed with [1-^14C]-AA for 30 seconds at 37° C.; reactions were terminated and analyzed as described above. […]

SMILES: COc1ccc2c(c1)c(CC(=O)O)cn2C(=O)c1ccc(Cl)cc1 [DM-INDO, 2-Des-methylindomethacin]
- inhibition of ovine COX-1 (concentrations up to 16 μM): does not appear to be inhibited at all
- inhibition in the time-dependent IC50 assay (wild type oCOX-1): less than 20%
- pIC50 (wild type oCOX-1, 20 min pre-incubation, then 50 μM AA for 30 s): < 4.80
